These compounds were tested on MOLM-13 cells (assay: MOLM-13 Cell Proliferation Assay (indicator of DHODH inhibition)). Conditions: Homo sapiens, 72 Hours of culture, CellTiter-Glo, no uridine.
Format: cell-based
Outline: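 Low-passage MOLM-13 cells (10^4/well) in RPMI 1640 + 10% FBS exposed to compound (0.5% DMSO final) for 72 h at 37 °C, 5% CO2. Viability read by CellTiter-Glo luminescence; growth reflects de novo pyrimidine synthesis dependent on DHODH.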
Compound `CN(C)c1ccc(C2c3[nH]c4ccc(Cl)c(F)c4c3CCN2c2ncc(F)cn2)cn1` (stereo not shown) [Compound 194, 5-[6-chloro-5-fluoro-2-(5-fluoropyrimidin-2-yl)-2,3,4,9-tetrahydro-1H-pyrido[3,4-b]indol-1-yl]-N,N-dimethylpyridin-2-amine] has an IC50 of 11.4 nM. With `Cc1ccc(C2c3[nH]c4ccc(Cl)c(F)c4c3CCN2c2ncc(Cl)cn2)c(F)c1F` (stereo not shown) [Compound 195, 6-chloro-2-(5-chloropyrimidin-2-yl)-1-(2,3-difluoro-4-methylphenyl)-5-fluoro-2,3,4,9-tetrahydro-1H-pyrido[3,4-b]indole] the IC50 was 1 nM. `Cc1ccnc(N2CCc3c([nH]c4ccc(Cl)c(F)c34)C2c2ccc(C)c(F)c2F)n1` (stereo not shown) [Compound 196, 6-chloro-1-(2,3-difluoro-4-methylphenyl)-5-fluoro-2-(4-methylpyrimidin-2-yl)-2,3,4,9-tetrahydro-1H-pyrido[3,4-b]indole] was tested, and the IC50 was 1.8 nM. `Cc1ccc(C2c3[nH]c4ccc(Cl)c(F)c4c3CCN2c2nccc(C#N)n2)c(F)c1F` (stereo not shown) [Compound 198, 2-[6-chloro-1-(2,3-difluoro-4-methylphenyl)-5-fluoro-1,3,4,9-tetrahydro-2H-pyrido[3,4-b]indol-2-yl]pyrimidine-4-carbonitrile] was tested, and the IC50 was 1.2 nM. `CNc1ncc(C2c3[nH]c4ccc(Cl)c(F)c4c3CCN2c2nccc(C(F)(F)F)n2)cn1` (stereo not shown) [Compound 199, 5-{6-chloro-5-fluoro-2-[4-(trifluoromethyl)pyrimidin-2-yl]-2,3,4,9-tetrahydro-1H-pyrido[3,4-b]indol-1-yl}-N-methylpyrimidin-2-amine] showed an IC50 of 5.4 nM. For `Fc1c(Cl)ccc2[nH]c3c(c12)CCN(c1nccc(C(F)(F)F)n1)C3c1cnc(N2CCOCC2)nc1` (stereo not shown) [Compound 200, 6-chloro-5-fluoro-1-[2-(morpholin-4-yl)pyrimidin-5-yl]-2-[4-(trifluoromethyl)pyrimidin-2-yl]-2,3,4,9-tetrahydro-1H-pyrido[3,4-b]indole], the IC50 was 2.1 nM. For `CN(C)c1ncc(C2c3[nH]c4ccc(Cl)c(F)c4c3CCN2c2ncc(F)cn2)cn1` (stereo not shown) [Compound 201, 5-[6-chloro-5-fluoro-2-(5-fluoropyrimidin-2-yl)-2,3,4,9-tetrahydro-1H-pyrido[3,4-b]indol-1-yl]-N,N-dimethylpyrimidin-2-amine], the IC50 was 7.9 nM. Work on `Fc1c(Cl)ccc2[nH]c3c(c12)CCN(c1nccc(C(F)(F)F)n1)C3c1cccnc1` (stereo not shown) [Compound 202, 6-chloro-5-fluoro-1-(pyridin-3-yl)-2-[4-(trifluoromethyl)pyrimidin-2-yl]-2,3,4,9-tetrahydro-1H-pyrido[3,4-b]indole] yielded an IC50 of 16.2 nM. `Cc1ccnc(N2CCc3c([nH]c4ccc(Cl)cc34)C2c2ccc(C)c(F)c2F)n1` (stereo not shown) [Compound 203, 6-chloro-1-(2,3-difluoro-4-methylphenyl)-2-(4-methylpyrimidin-2-yl)-2,3,4,9-tetrahydro-1H-pyrido[3,4-b]indole] showed an IC50 of 1.6 nM. For `Cc1cc(C(F)(F)F)nc(N2CCc3c([nH]c4ccc(Cl)cc34)[C@H]2c2ccc(C)c(F)c2F)n1` [Compound 204, (1R)-6-chloro-1-(2,3-difluoro-4-methylphenyl)-2-[4-methyl-6-(trifluoromethyl)pyrimidin-2-yl]-2,3,4,9-tetrahydro-1H-pyrido[3,4-b]indole], the IC50 was 39.8 nM. For `Cc1cc(C)nc(N2CCc3c([nH]c4ccc(Cl)c(F)c34)C2c2ccc(C)c(F)c2F)n1` (stereo not shown) [Compound 205, 6-chloro-1-(2,3-difluoro-4-methylphenyl)-2-(4,6-dimethylpyrimidin-2-yl)-5-fluoro-2,3,4,9-tetrahydro-1H-pyrido[3,4-b]indole], the IC50 was 0.7 nM. `Cc1cc(C(F)(F)F)nc(N2CCc3c([nH]c4ccc(Cl)c(F)c34)C2c2ccc(C)c(F)c2F)n1` (stereo not shown) [Compound 206, 6-chloro-1-(2,3-difluoro-4-methylphenyl)-5-fluoro-2-[4-methyl-6-(trifluoromethyl)pyrimidin-2-yl]-2,3,4,9-tetrahydro-1H-pyrido[3,4-b]indole] showed an IC50 of 0.4 nM. For `Cc1ccc(C2c3[nH]c4c(O)cc(Cl)cc4c3CCN2c2nccc(C(F)(F)F)n2)cc1` (stereo not shown) [Compound 207, 6-chloro-1-(4-methylphenyl)-2-[4-(trifluoromethyl)pyrimidin-2-yl]-2,3,4,9-tetrahydro-1H-pyrido[3,4-b]indol-8-ol], the IC50 was 2.2 nM. Compound `CN(C)c1ccc(C2c3[nH]c4cc(F)c(Cl)cc4c3CCN2c2nccc(C(F)(F)F)n2)c(F)n1` (stereo not shown) [Compound 208, 5-{6-chloro-7-fluoro-2-[4-(trifluoromethyl)pyrimidin-2-yl]-2,3,4,9-tetrahydro-1H-pyrido[3,4-b]indol-1-yl}-6-fluoro-N,N-dimethylpyridin-2-amine] has an IC50 of 2.2 nM. With `Cc1ccc(C2c3[nH]c4ccc(Cl)c(F)c4c3CCN2c2nc(C(F)(F)F)cc(C(F)(F)F)n2)c(F)c1F` (stereo not shown) [Compound 209, 2-[4,6-bis(trifluoromethyl)pyrimidin-2-yl]-6-chloro-1-(2,3-difluoro-4-methylphenyl)-5-fluoro-2,3,4,9-tetrahydro-1H-pyrido[3,4-b]indole] the IC50 was 0.8 nM. `CN(C)c1ccc(C2c3[nH]c4ccc(Cl)c(F)c4c3CCN2c2nccc(C(F)(F)F)n2)c(F)n1` (stereo not shown) [Compound 210, 5-{6-chloro-5-fluoro-2-[4-(trifluoromethyl)pyrimidin-2-yl]-2,3,4,9-tetrahydro-1H-pyrido[3,4-b]indol-1-yl}-6-fluoro-N,N-dimethylpyridin-2-amine] gave an IC50 of 1.9 nM. `Fc1cnc(N2CCc3c([nH]c4ccc(Cl)c(F)c34)C2c2cnc(N3CCOCC3)nc2)nc1` (stereo not shown) [Compound 211, 6-chloro-5-fluoro-2-(5-fluoropyrimidin-2-yl)-1-[2-(morpholin-4-yl)pyrimidin-5-yl]-2,3,4,9-tetrahydro-1H-pyrido[3,4-b]indole] was tested, and the IC50 was 4.9 nM. Compound `Nc1ncc(C2c3[nH]c4ccc(Cl)c(F)c4c3CCN2c2ncc(F)cn2)cn1` (stereo not shown) [Compound 212, 5-[6-chloro-5-fluoro-2-(5-fluoropyrimidin-2-yl)-2,3,4,9-tetrahydro-1H-pyrido[3,4-b]indol-1-yl]pyrimidin-2-amine] has an IC50 of 71 nM. With `Cc1ccc(C2c3[nH]c4ccc(Cl)c(F)c4c3CCN2c2ncc(F)c(C#N)n2)c(F)c1F` (stereo not shown) [Compound 214, 2-[6-chloro-1-(2,3-difluoro-4-methylphenyl)-5-fluoro-1,3,4,9-tetrahydro-2H-pyrido[3,4-b]indol-2-yl]-5-fluoropyrimidine-4-carbonitrile] the IC50 was 0.5 nM. Work on `Cc1ccc(C2c3[nH]c4cc(F)c(Cl)cc4c3CCN2c2nc(C#N)cc(C#N)n2)c(F)c1F` (stereo not shown) [Compound 216, 2-[6-chloro-1-(2,3-difluoro-4-methylphenyl)-7-fluoro-1,3,4,9-tetrahydro-2H-pyrido[3,4-b]indol-2-yl]pyrimidine-4,6-dicarbonitrile] yielded an IC50 of 4.8 nM. Compound `Cc1ccc(C2c3[nH]c4ccc(Cl)c(F)c4c3CCN2c2ncc(F)c(C#N)n2)cc1` (stereo not shown) [Compound 217, 2-[6-chloro-5-fluoro-1-(4-methylphenyl)-1,3,4,9-tetrahydro-2H-pyrido[3,4-b]indol-2-yl]-5-fluoropyrimidine-4-carbonitrile] has an IC50 of 2.2 nM. Work on `Oc1cc(C2c3[nH]c4ccc(Cl)cc4c3CCN2c2nccc(C(F)(F)F)n2)ccc1Cl` (stereo not shown) [Compound 218, 2-chloro-5-{6-chloro-2-[4-(trifluoromethyl)pyrimidin-2-yl]-2,3,4,9-tetrahydro-1H-pyrido[3,4-b]indol-1-yl}phenol] yielded an IC50 of 6.1 nM. `Oc1cc(C2c3[nH]c4ccc(Cl)cc4c3CCN2c2ncc(F)cn2)ccc1Cl` (stereo not shown) [Compound 219, 2-chloro-5-[6-chloro-2-(5-fluoropyrimidin-2-yl)-2,3,4,9-tetrahydro-1H-pyrido[3,4-b]indol-1-yl]phenol] showed an IC50 of 23.3 nM. For `Oc1cc(Cl)ccc1C1c2[nH]c3ccc(Cl)cc3c2CCN1c1ncc(F)cn1` (stereo not shown) [Compound 221, 5-chloro-2-[6-chloro-2-(5-fluoropyrimidin-2-yl)-2,3,4,9-tetrahydro-1H-pyrido[3,4-b]indol-1-yl]phenol], the IC50 was 4.2 nM. Work on `Oc1cc(Cl)ccc1C1c2[nH]c3ccc(Cl)cc3c2CCN1c1nccc(C(F)(F)F)n1` (stereo not shown) [Compound 222, 5-chloro-2-{6-chloro-2-[4-(trifluoromethyl)pyrimidin-2-yl]-2,3,4,9-tetrahydro-1H-pyrido[3,4-b]indol-1-yl}phenol] yielded an IC50 of 3.5 nM. `OCCOCc1ccc(C2c3[nH]c4cc(F)c(Cl)cc4c3CCN2c2nccc(C(F)(F)F)n2)cc1` (stereo not shown) [Compound 223, 2-[(4-{6-chloro-7-fluoro-2-[4-(trifluoromethyl)pyrimidin-2-yl]-2,3,4,9-tetrahydro-1H-pyrido[3,4-b]indol-1-yl}phenyl)methoxy]ethan-1-ol] showed an IC50 of 2 nM. Work on `N#Cc1ccnc(N2CCc3c([nH]c4cc(F)c(Cl)cc34)C2c2ccc(/C=C/CCO)cc2)n1` (stereo not shown) [Compound 224, 2-(6-chloro-7-fluoro-1-{4-[(1E)-4-hydroxybut-1-en-1-yl]phenyl}-1,3,4,9-tetrahydro-2H-pyrido[3,4-b]indol-2-yl)pyrimidine-4-carbonitrile] yielded an IC50 of 3.9 nM. `Nc1ncc(C2c3[nH]c4ccc(Cl)c(F)c4c3CCN2c2nccc(C(F)(F)F)n2)cn1` (stereo not shown) [Compound 225, 5-{6-chloro-5-fluoro-2-[4-(trifluoromethyl)pyrimidin-2-yl]-2,3,4,9-tetrahydro-1H-pyrido[3,4-b]indol-1-yl}pyrimidin-2-amine] showed an IC50 of 18.3 nM. Work on `Fc1ncccc1C1c2[nH]c3ccc(Cl)c(F)c3c2CCN1c1nccc(C(F)(F)F)n1` (stereo not shown) [Compound 226, 6-chloro-5-fluoro-1-(2-fluoropyridin-3-yl)-2-[4-(trifluoromethyl)pyrimidin-2-yl]-2,3,4,9-tetrahydro-1H-pyrido[3,4-b]indole] yielded an IC50 of 25.4 nM. In the case of `N#Cc1cc(C#N)nc(N2CCc3c([nH]c4cc(F)c(Cl)cc34)C2c2cccc(F)c2F)n1` (stereo not shown) [Compound 227, 2-[6-chloro-1-(2,3-difluorophenyl)-7-fluoro-1,3,4,9-tetrahydro-2H-pyrido[3,4-b]indol-2-yl]pyrimidine-4,6-dicarbonitrile], the IC50 is reported as 16.4 nM. `Cc1ccc(C2c3[nH]c4ccc(Cl)c(F)c4c3CCN2c2nc(C#N)cc(C#N)n2)cc1` (stereo not shown) [Compound 228, 2-[6-chloro-5-fluoro-1-(4-methylphenyl)-1,3,4,9-tetrahydro-2H-pyrido[3,4-b]indol-2-yl]pyrimidine-4,6-dicarbonitrile] showed an IC50 of 4.4 nM.
